{"source": "patent US20050187152A1", "about": "“Prevention and treatment of hypergastrinemia” (Aphton Corporation, priority 1998, published 2005)", "key": {"[1]": {"tested_on": "polypoid carcinomas from the large and small intestine of Min mice", "assay": "In vitro proliferation of Min mouse polypoid carcinomas, tetrazolium-based colorimetric assay", "format": "cell-based", "protocol": "Polypoid carcinomas have been established in vitro from the large and small intestine of Min mice. Proliferation was assessed by a tetrazolium-based colorimetric ELISA assay."}, "[2]": {"tested_on": "rabbit anti-G17 (C-terminal) antiserum", "assay": "Displacement of radiolabelled G17 from C-terminal specific antiserum", "format": "binding", "settings": "antiserum 100 μg/ml on solid phase, radiolabelled G17 100 pg/ml; FIG. 12", "protocol": "(§1) Antisera were absorbed onto a solid phase at a concentration of 100 μg/ml and displacement was determined in a competitive assay with a fixed concentration of radiolabelled G17 (100 pg/ml) and increasing concentrations of unlabelled ligands (1-25,000 pg/ml)."}, "[3]": {"target": "rabbit anti-human G17(1-9):DT (N-terminal) antiserum", "assay": "Displacement of radiolabelled G17 from N-terminal specific antiserum", "format": "binding", "settings": "antiserum 100 μg/ml on solid phase, radiolabelled G17 100 pg/ml; FIG. 11", "protocol": "as §1"}, "[4]": {"tested_on": "plasma gastrin", "settings": "cited from earlier work"}, "[5]": {"tested_on": "plasma gastrin", "settings": "400 μmol/kg, 14 mg/kg, 10 weeks; cited from earlier work"}, "[6]": {"tested_on": "crypts and tumors of the small and large intestine", "assay": "Bromodeoxyuridine in situ proliferation index in Min mice", "format": "in vivo, mouse", "settings": "hypergastrinemic mice", "protocol": "One hour prior to termination, mice were injected with DNA analogue bromodeoxyuridine in order to determine the comparative in situ proliferation activity. The samples were formalin fixed, paraffin embedded, sections were cut and stained with an anti-bromodeoxyuridine antibody.\nSerum gastrin level was measured by RIA. Prior to end of treatment, proliferative index was determined by the bromodeoxyuridine method. • Group 1."}, "[7]": {"tested_on": "plasma gastrin", "settings": "cited from earlier work", "remark": "listed apart in the source"}, "[8]": {"tested_on": "Min mouse model of familial adenomatous polyposis", "quoted_text": "Accordingly, the effect of gastrin neutralization on Min mouse survival was determined.\nThe Min mice used in the study were bred within the Academic Unit of Cancer Studies at Nottingham University (U.K.) on a C57/BL background. […] The Min positive mice were then placed into each arm of the therapy on an ongoing basis.\nGastrin neutralization was achieved by using an immunogen, i.e. the gastrin immunogen preparation, which is composed of the amino terminal domain of gastrin-17 linked, via an amino acid spacer, to diphtheria toxoid which acts as the immunogenic carrier. The antibodies raised by virtue of the design of the immunogen, cross-react with both amidated and glycine-extended gastrin-17, known proliferative forms of gastrin. Min mice were immunized s.c. with the hG17-DT immunogen (100 mg/mouse) at week 4, with subsequent injections at 3 weekly intervals. […] The hG17-DT immunogen was administered to mice at 4 weeks of age to examine its effect on mice with an established tumor burden.\n• Group 1. OME 75 mg/kg daily oral treatment • Group 2. OME+GSI 100 mg oral dose/mouse day 0 and every 3 weeks • Group 3. Oral vehicle+control immunogen • Group 4. Oral vehicle−control immunogen"}, "[9]": {"settings": "patients receiving 40 mg daily for eight years"}, "[10]": {"settings": "same dose (400 μmol/kg, 14 mg/kg)"}}, "note": "Where no end group is shown, it is not given here."}
{"molecule": "amidated gastrin: amidated gastrin added to Min mouse tumor cultures (QGPWLEEEEEAYGWMDF-NH2; ends and bridges not checked; UniProt P01350 76-92, looked up)", "values": [{"measurement": "proliferation of large intestinal tumor in vitro", "setting": "[1]", "result": "not increased"}, {"measurement": "proliferation of small intestinal tumor in vitro", "setting": "[1]", "result": "not increased"}]}
{"molecule": "G34: gastrin-34, unlabelled ligand in the displacement assay (QLGPQGPPHLVADPSKKQGPWLEEEEEAYGWMDF; ends and bridges not checked; UniProt P01350 59-92, looked up) [Peptide G34]", "values": [{"measurement": "IC25, displacement of radiolabelled G17", "setting": "[2]", "result": 0.5, "unit": "ng/mL"}]}
{"molecule": "G17: gastrin-17, unlabelled ligand in the displacement assay [Peptide G17]", "values": [{"measurement": "50% inhibitory concentration (IC50), displacement of radiolabelled G17", "setting": "[2]", "result": 0.8, "unit": "ng/mL"}, {"measurement": "50% inhibitory concentration (IC50), displacement of radiolabelled G17", "setting": "[3]", "result": 3.5, "unit": "ng/mL"}]}
{"molecule": "COc1ccc2[nH]c([S+]([O-])Cc3ncc(C)c(OC)c3C)nc2c1", "note": "(centres unmarked) [omeprazole]", "values": [{"measurement": "markedly elevated gastrin levels", "setting": "[4]; occasionally, long term treatment, 20-60 mg/day", "result": 10, "unit": "fold"}, {"measurement": "prevalence of micronodular hyperplasia in atrophic gastritis", "setting": "[4]; [9]", "result": 48, "unit": "%"}, {"measurement": "prevalence of micronodular hyperplasia in interstitial gastritis", "setting": "[4]; [9]", "result": 19.6, "unit": "%"}, {"measurement": "prevalence of micronodular hyperplasia in superficial corpus gastritis", "setting": "[4]; [9]", "result": 3.6, "unit": "%"}, {"measurement": "ECL density increase at the end of treatment", "setting": "[5]", "result": 37, "unit": "%"}, {"measurement": "increase in plasma gastrin during treatment", "setting": "[5]", "result": "threefold"}, {"measurement": "stomach weight increase at the end of treatment", "setting": "[5]", "result": 34, "unit": "%"}, {"measurement": "proliferating cells, normal colonic mucosa", "setting": "[6]; increased from 9.46%, p<0.05 Mann-Whitney", "result": 20.1, "unit": "%"}, {"measurement": "proliferating cells, colonic neoplasia", "setting": "[6]; increased from 22.3%, p<0.01", "result": 35.0, "unit": "%"}, {"measurement": "increase in gastrin compared to controls", "setting": "[7]; female rats, long-term (1-year) daily 400 μmol/kg, 14 mg/kg", "result": 15, "unit": "fold"}, {"measurement": "ECL cell density increase", "setting": "[7]; [10]", "result": "about 300%"}, {"measurement": "increase of gastrin levels", "setting": "[7]; [10]", "result": 10, "unit": "fold"}, {"measurement": "50% survival", "setting": "[8]; Example 2, OME 75 mg/kg daily oral, control group 16 weeks, p=0.0001 log rank", "result": 8, "unit": "weeks"}, {"measurement": "effect of omeprazole-induced hypergastrinemia on survival of Min mice", "setting": "[8]; high daily doses of omeprazole", "result": "decreases the survival"}, {"measurement": "median survival", "setting": "[8]; omeprazole-induced hypergastrinemia, reduced from approximately 10 weeks", "result": "~6", "unit": "weeks"}]}
